In patent US20020051978A1, “Methods and compositions for the identification, assessment, prevention and therapy of human cancers” (priority 2000, published 2002):
Like-named read-outs stand apart in the source and are kept apart here.

Assays:
[1] = system: 60 cancer cell lines (NCI 60 cancer cell line series); assay: NCI-DTP in vitro cancer screen, sulforhodamine B (SRB) growth inhibition, 48 hour exposure; type: cell-based, human; design: key to sensitivity class Ovarian OVCAR-8 CL6005 / sensitivity class Ovarian SK-OV-3 CL6011 / sensitivity class Prostate DU-145 CL11003 / sensitivity class NSCLC NCI-H522 CL1003 / sensitivity class Ovarian IGROV1 CL6010 / sensitivity class Ovarian OVCAR-4 CL6002 / sensitivity class Prostate PC-3(I) CL11001 / sensitivity class Renal A498 CL9013 / sensitivity class Renal SN12C CL9008: sensitivity class: 1 = Low, 2 = Medium, 3 = High
Procedure, shortened: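 Values come from the NCI-DTP screen database: -log GI50, the concentration giving 50% growth inhibition, derived from SRB cell-mass dose-response curves. Each line seeded at its own density, treated day 1 at five ten-fold-spaced doses in duplicate wells, stained after 48 h.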

[2] = system: 60 cancer cell lines (NCI 60 cancer cell line series); conditions: cited from earlier work

COc1cc([C@@H]2c3cc4c(cc3[C@@H](O[C@@H]3O[C@@H]5CO[C@@H](C)O[C@H]5[C@H](O)[C@H]3O)[C@H]3COC(=O)[C@H]23)OCO4)cc(OC)c1O [Etoposide]
classification of cell line as Low(1), Medium(2) or High(3) sensitivity to compound ([1]; Breast BT-549 (CL5013)): 2
classification of cell line as Low(1), Medium(2) or High(3) sensitivity to compound ([1]; Breast HS-578T CL5006): 3
classification of cell line as Low(1), Medium(2) or High(3) sensitivity to compound ([1]; Breast MCF7(I) (CL5001)): 2
classification of cell line as Low(1), Medium(2) or High(3) sensitivity to compound ([1]; Breast MCF7/ADRr (CL5002)): 1
classification of cell line as Low(1), Medium(2) or High(3) sensitivity to compound ([1]; Breast MDA-MB-231 CL5005): 2
classification of cell line as Low(1), Medium(2) or High(3) sensitivity to compound ([1]; Breast MDA-MB-435 (CL5011)): 2
classification of cell line as Low(1), Medium(2) or High(3) sensitivity to compound ([1]; Breast MDA-N CL5012): 3
classification of cell line as Low(1), Medium(2) or High(3) sensitivity to compound ([1]; Breast T-47D (CL5014)): 3
classification of cell line as Low(1), Medium(2) or High(3) sensitivity to compound ([1]; CNS SF-268 CL12014): 2
classification of cell line as Low(1), Medium(2) or High(3) sensitivity to compound ([1]; CNS SF-295 CL12015): 2
classification of cell line as Low(1), Medium(2) or High(3) sensitivity to compound ([1]; CNS SF-539 CL12016): 2
classification of cell line as Low(1), Medium(2) or High(3) sensitivity to compound ([1]; CNS SNB-19 (CL12002)): 2
classification of cell line as Low(1), Medium(2) or High(3) sensitivity to compound ([1]; CNS SNB-75(I) CL12005): 2
classification of cell line as Low(1), Medium(2) or High(3) sensitivity to compound ([1]; CNS U251(I) CL12009): 2
classification of cell line as Low(1), Medium(2) or High(3) sensitivity to compound ([1]; Colon COLO-250 CL4010): 1
classification of cell line as Low(1), Medium(2) or High(3) sensitivity to compound ([1]; Colon HCC-2998 (CL4002)): 2
classification of cell line as Low(1), Medium(2) or High(3) sensitivity to compound ([1]; Colon HCT-15 CL4015): 2
classification of cell line as Low(1), Medium(2) or High(3) sensitivity to compound ([1]; Colon HCT-116 (CL4003)): 2
classification of cell line as Low(1), Medium(2) or High(3) sensitivity to compound ([1]; Colon HT29(I) CL4001): 1
classification of cell line as Low(1), Medium(2) or High(3) sensitivity to compound ([1]; Colon KM12 (CL4017)): 2
classification of cell line as Low(1), Medium(2) or High(3) sensitivity to compound ([1]; Colon SW-620 (CL4009)): 2
classification of cell line as Low(1), Medium(2) or High(3) sensitivity to compound ([1]; Leukemia CCRF-CEM(I) (CL7003)): 2
classification of cell line as Low(1), Medium(2) or High(3) sensitivity to compound ([1]; Leukemia HL-60(I) (CL7008)): 2
classification of cell line as Low(1), Medium(2) or High(3) sensitivity to compound ([1]; Leukemia K562(I) CL7005): 2
classification of cell line as Low(1), Medium(2) or High(3) sensitivity to compound ([1]; Leukemia MOLT-4 (CL7006)): 3
classification of cell line as Low(1), Medium(2) or High(3) sensitivity to compound ([1]; Leukemia RPMI-8226(I) (CL7010)): 2
classification of cell line as Low(1), Medium(2) or High(3) sensitivity to compound ([1]; Leukemia SR CL7019): 3
classification of cell line as Low(1), Medium(2) or High(3) sensitivity to compound ([1]; Melanoma LOX IMVI CL10001): 2
classification of cell line as Low(1), Medium(2) or High(3) sensitivity to compound ([1]; Melanoma M14 (CL10014)): 3
classification of cell line as Low(1), Medium(2) or High(3) sensitivity to compound ([1]; Melanoma MALME-3M CL10002): 2
sensitivity class NSCLC NCI-H23(I) CL1001 ([1]; cell line NSCLC NCI-H23(I), CL1001): 2
sensitivity class NSCLC NCI-H332M CL1017 ([1]; cell line NSCLC NCI-H332M, CL1017): 1
sensitivity class NSCLC NCI-H460 CL1021 ([1]; cell line NSCLC NCI-H460, CL1021): 3
sensitivity class NSCLC NCI-H522 CL1003 ([1]; cell line NSCLC NCI-H522, CL1003): 2
sensitivity class Ovarian IGROV1 CL6010 ([1]; cell line Ovarian IGROV1, CL6010): 1
sensitivity class Ovarian OVCAR-3 CL6001 ([1]; cell line Ovarian OVCAR-3, CL6001): 1
sensitivity class Ovarian OVCAR-4 CL6002 ([1]; cell line Ovarian OVCAR-4, CL6002): 1
sensitivity class Ovarian OVCAR-5 CL6003 ([1]; cell line Ovarian OVCAR-5, CL6003): 1
sensitivity class Ovarian OVCAR-8 CL6005 ([1]; cell line Ovarian OVCAR-8, CL6005): 2
sensitivity class Ovarian SK-OV-3 CL6011 ([1]; cell line Ovarian SK-OV-3, CL6011): 2
sensitivity class Prostate DU-145 CL11003 ([1]; cell line Prostate DU-145, CL11003): 3
sensitivity class Prostate PC-3(I) CL11001 ([1]; cell line Prostate PC-3(I), CL11001): 3
sensitivity class Renal 786-O CL9018 ([1]; cell line Renal 786-O, CL9018): 2
sensitivity class Renal A498 CL9013 ([1]; cell line Renal A498, CL9013): 2
sensitivity class Renal ACHN CL9023 ([1]; cell line Renal ACHN, CL9023): 3
sensitivity class Renal CAKI-1 CL9015 ([1]; cell line Renal CAKI-1, CL9015): 2
sensitivity class Renal RXF-393 CL9016 ([1]; cell line Renal RXF-393, CL9016): 2
sensitivity class Renal SN12C CL9008 ([1]; cell line Renal SN12C, CL9008): 2
sensitivity class Renal TK10 CL9024 ([1]; cell line Renal TK10, CL9024): 2
sensitivity class Renal UO-31 CL9004 ([1]; cell line Renal UO-31, CL9004): 1
-Log (GI50) ([2]; Breast BT-549 (CL5013)): 5.6
-Log (GI50) ([2]; Breast HS-578T CL5006): 6.1
-Log (GI50) ([2]; Breast MCF7(I) (CL5001)): 5.4
-Log (GI50) ([2]; Breast MCF7/ADRr (CL5002)): 3.9
-Log (GI50) ([2]; Breast MDA-MB-231 CL5005): 5.8
-Log (GI50) ([2]; Breast MDA-MB-435 (CL5011)): 4.5
-Log (GI50) ([2]; Breast MDA-N CL5012): 6.0
-Log (GI50) ([2]; Breast T-47D (CL5014)): 6.0
-Log (GI50) ([2]; CNS SF-268 CL12014): 4.8
-Log (GI50) ([2]; CNS SF-295 CL12015): 5.0
-Log (GI50) ([2]; CNS SF-539 CL12016): 5.2
-Log (GI50) ([2]; CNS SNB-19 (CL12002)): 4.8
-Log (GI50) ([2]; CNS SNB-75(I) CL12005): 4.8
-Log (GI50) ([2]; CNS U251(I) CL12009): 5.2
-Log (GI50) ([2]; Colon COLO-250 CL4010): 4.2
-Log (GI50) ([2]; Colon HCC-2998 (CL4002)): 4.7
-Log (GI50) ([2]; Colon HCT-15 CL4015): 4.5
-Log (GI50) ([2]; Colon HCT-116 (CL4003)): 4.6
-Log (GI50) ([2]; Colon HT29(I) CL4001): 4.2
-Log (GI50) ([2]; Colon KM12 (CL4017)): 4.5
-Log (GI50) ([2]; Colon SW-620 (CL4009)): 4.9
-Log (GI50) ([2]; Leukemia CCRF-CEM(I) (CL7003)): 5.6
-Log (GI50) ([2]; Leukemia HL-60(I) (CL7008)): 5.7
-Log (GI50) ([2]; Leukemia K562(I) CL7005): 4.6
-Log (GI50) ([2]; Leukemia MOLT-4 (CL7006)): 6.0
-Log (GI50) ([2]; Leukemia RPMI-8226(I) (CL7010)): 5.4
-Log (GI50) ([2]; Leukemia SR CL7019): 6.7
-Log (GI50) ([2]; Melanoma LOX IMVI CL10001): 5.3
-Log (GI50) ([2]; Melanoma M14 (CL10014)): 6.1
-Log (GI50) ([2]; Melanoma MALME-3M CL10002): 4.7
-Log (GI50) ([2]; NCSLC NCI-H522 CL1003): 5.1
-Log (GI50) ([2]; NSCLC NCI-H23(I) CL1001): 5.1
-Log (GI50) ([2]; NSCLC NCI-H332M CL1017): 3.8
-Log (GI50) ([2]; NSCLC NCI-H460 CL1021): 6.0
-Log (GI50) ([2]; Ovarian IGROV1 CL6010): 4.2
-Log (GI50) ([2]; Ovarian OVCAR-3 CL6001): 4.2
-Log (GI50) ([2]; Ovarian OVCAR-4 CL6002): 3.8
-Log (GI50) ([2]; Ovarian OVCAR-5 CL6003): 4.3
-Log (GI50) ([2]; Ovarian OVCAR-8 CL6005): 4.8
-Log (GI50) ([2]; Ovarian SK-OV-3 CL6011): 4.5
-Log (GI50) ([2]; Prostate DU-145 CL11003): 6.1
-Log (GI50) ([2]; Prostate PC-3(I) CL11001): 6.2
-Log (GI50) ([2]; Renal 786-O CL9018): 5.9
-Log (GI50) ([2]; Renal A498 CL9013): 4.7
-Log (GI50) ([2]; Renal ACHN CL9023): 6.1
-Log (GI50) ([2]; Renal CAKI-1 CL9015): 5.2
-Log (GI50) ([2]; Renal RXF-393 CL9016): 4.8
-Log (GI50) ([2]; Renal SN12C CL9008): 5.0
-Log (GI50) ([2]; Renal TK10 CL9024): 5.3
-Log (GI50) ([2]; Renal UO-31 CL9004): 4.1
